Data set [1] can be described thus: ADME solubility determination in PBS at pH 2.0 and pH 7.4. The following applies: phosphate buffered saline, 25 °C, thermodynamic from solid. Type of data set: physicochemical. A digest of the protocol:
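Solubility was read by LC-MS/MS on centrifuged supernatants, calibrated to a known-concentration standard and corrected for dilution. Compound, dried down from 10 mM DMSO stock, was equilibrated 24 h at 25° C with shaking in PBS at pH 2.0 or pH 7.4.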

For another data set, the target named is USP1/UAF1 enzyme (Homo sapiens, UniProt O94782). Kind of data set: USP1/UAF1 deubiquitination assay (ubiquitin-rhodamine 110 substrate). Type of data set: biochemical. The following applies: read-out: USP1 IC50 (Ub-Rho). The essentials: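 Cleavage of 150 nM ubiquitin-rhodamine 110 by 0.05 nM USP1/UAF1 was followed as fluorescence (Ex480/Em540, kinetic, 30 min) in Tris-HCl pH 7.8 buffer with EDTA, BSA, DTT and Tween-20. Compounds, top 10 μM, were preincubated with enzyme 10 min; % inhibition against no-enzyme and DMSO wells gave four-parameter IC50s.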
Chain of USP1/UAF1 enzyme (O94782 whole entry): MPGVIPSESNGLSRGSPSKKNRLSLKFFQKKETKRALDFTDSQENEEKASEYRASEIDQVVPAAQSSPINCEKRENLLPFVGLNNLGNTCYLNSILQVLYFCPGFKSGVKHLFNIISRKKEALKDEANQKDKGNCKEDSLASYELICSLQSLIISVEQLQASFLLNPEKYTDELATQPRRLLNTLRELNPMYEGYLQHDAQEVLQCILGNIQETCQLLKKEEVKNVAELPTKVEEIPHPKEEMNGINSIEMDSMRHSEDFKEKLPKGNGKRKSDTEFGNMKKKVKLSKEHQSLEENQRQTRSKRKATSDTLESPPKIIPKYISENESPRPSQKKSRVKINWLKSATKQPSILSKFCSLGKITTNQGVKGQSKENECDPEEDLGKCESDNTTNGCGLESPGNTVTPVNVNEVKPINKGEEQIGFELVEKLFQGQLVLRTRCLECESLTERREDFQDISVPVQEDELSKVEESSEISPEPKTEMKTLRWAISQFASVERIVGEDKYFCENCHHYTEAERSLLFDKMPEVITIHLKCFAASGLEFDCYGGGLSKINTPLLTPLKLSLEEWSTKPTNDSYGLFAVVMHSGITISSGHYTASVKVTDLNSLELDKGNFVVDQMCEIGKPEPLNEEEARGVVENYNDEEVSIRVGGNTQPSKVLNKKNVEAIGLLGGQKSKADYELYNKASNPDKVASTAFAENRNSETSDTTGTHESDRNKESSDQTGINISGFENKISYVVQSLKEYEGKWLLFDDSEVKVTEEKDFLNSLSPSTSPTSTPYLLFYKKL
Chain of USP1/UAF1 enzyme (Q8TAF3 whole entry partner): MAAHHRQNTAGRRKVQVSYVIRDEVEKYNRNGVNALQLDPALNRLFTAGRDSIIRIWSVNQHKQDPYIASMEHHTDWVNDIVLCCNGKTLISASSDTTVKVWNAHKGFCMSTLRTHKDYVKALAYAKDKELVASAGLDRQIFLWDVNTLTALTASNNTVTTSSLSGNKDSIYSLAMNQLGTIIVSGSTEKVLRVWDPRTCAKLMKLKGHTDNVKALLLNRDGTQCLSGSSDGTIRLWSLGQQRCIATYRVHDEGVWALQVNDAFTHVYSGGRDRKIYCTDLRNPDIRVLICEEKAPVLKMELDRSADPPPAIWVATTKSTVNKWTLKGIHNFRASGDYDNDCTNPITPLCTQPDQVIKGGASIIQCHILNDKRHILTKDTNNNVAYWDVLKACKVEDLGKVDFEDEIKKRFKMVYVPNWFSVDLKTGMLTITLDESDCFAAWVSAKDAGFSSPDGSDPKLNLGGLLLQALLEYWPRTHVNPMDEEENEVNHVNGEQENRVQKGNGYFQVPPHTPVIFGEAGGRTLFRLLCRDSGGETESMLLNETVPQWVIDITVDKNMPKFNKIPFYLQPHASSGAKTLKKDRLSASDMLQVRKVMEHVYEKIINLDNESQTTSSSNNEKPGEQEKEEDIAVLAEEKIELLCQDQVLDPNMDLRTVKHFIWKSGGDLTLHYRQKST

In data set [2] the test system is Ub-PCNA levels in the nucleus of ES2 cells (USP1 activity). Kind of data set: ES2 Ub-PCNA immunofluorescence (IF) assay. Conditions: Homo sapiens, ES-2; ES2 cells, 3 hours, Ub-PCNA immunofluorescence; read-out: USP1 IC50 (Ub-PCNA). The class given is cell-based. The essentials: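 AC50 derived from percent Ub-PCNA-positive nuclei, positivity set by a 95% cutoff from untreated-well intensities. Readout by imaging immunofluorescence (anti-Ub-PCNA, DAPI nuclear mask) after methanol fixation. Compound exposure: 3 h at 37° C, 0.3% DMSO final, on cells plated overnight.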

Data set [3] can be described thus: Liver microsomal metabolic stability, human liver microsomes (HLM). The following applies: human, liver microsomes. (Liver microsomes are vesicles of endoplasmic reticulum, rich in cytochrome P450 enzymes.)
The nature of data set [4]: Liver microsomal metabolic stability, rat liver microsomes (RLM). The following applies: rat, liver microsomes, t1/2 (min) in RLM, 1 μM compound, 1 mg/mL microsomes, NADPH.
[5] abbreviates: pH 2, aqueous buffer, PBS pH 2.0, 25° C., read-out: Solubility at pH 2.0.
The mark [6] stands for this setting: pH 7.4, aqueous buffer, PBS pH 7.4, 25° C., read-out: Solubility at pH 7.4.

Usually solubility stands for the dissolved amount per volume that the medium holds. Usually IC50 stands for the concentration that inhibits the measured activity by half. As usually defined, the half-life is the time in which the quantity being followed falls by half. Low values mean rapid decline, high ones slow decline.

Molecules are shown by their SMILES. Like-named read-outs stand apart in the source and are kept apart here. Where only a bound is given, the exact number is not on record here.

`CCn1cc(C(F)(F)F)nc1-c1ccc(C(C)N2C(=O)CCn3nc(-c4c(OC)ncnc4C4CC4)cc32)cc1F` (stereo not drawn) [Example 120]: the solubility at 24 h in data set [1] (setting [5]) and in data set [1] (setting [6]) was less than 10 µM throughout. For the same molecule, the IC50 (on USP1/UAF1 enzyme; in data set [2]) was less than 0.1 µM in each case. For the same molecule, the half-life at 1 μM in data set [3] and in data set [4] was more than 25 min in each case.
Regarding `COc1ncnc(C2CC2)c1-c1cc2n(n1)CCC(=O)N2[C@@H](C)c1ccc(-c2nc(C(F)(F)F)cn2C(C)C)cc1` [Example 122], the solubility at 24 h in data set [1] (setting [5]) was not below 10 µM; in data set [1] (setting [6]), less than 10 µM. Also, the results for the IC50 (on USP1/UAF1 enzyme; in data set [2]) were 0.1 to 0.5 µM and more than 0.5 µM, respectively. The half-life at 1 μM in data set [3] and in data set [4] was more than 25 min each time.
Turning to `COc1ncnc(C2CC2)c1-c1cc2n(n1)CCC(=O)N2[C@H](C)c1ccc(-c2nc(C(F)(F)F)cn2C(C)C)cc1` [Example 123], the solubility at 24 h in data set [1] (setting [5]) is not below 10 µM; in data set [1] (setting [6]) it was less than 10 µM. In addition, the IC50 (at USP1/UAF1 enzyme; in data set [2]) was less than 0.1 µM each time. In addition, the half-life at 1 μM in data set [3] and in data set [4] was more than 25 min each time.
Regarding `CCn1cc(C(F)(F)F)nc1-c1ccc([C@H](C)N2C(=O)CCn3nc(-c4c(OC)ncnc4C4CC4)cc32)cc1` [Example 124], the solubility at 24 h in data set [1] (setting [5]) and in data set [1] (setting [6]) was not below 10 µM each time. The IC50 at USP1/UAF1 enzyme is 0.1 to 0.5 µM; in data set [2], more than 0.5 µM. Moreover, the half-life at 1 μM in data set [3] and in data set [4] was less than 25 min in each case.
With `CCn1cc(C(F)(F)F)nc1-c1ccc([C@@H](C)N2C(=O)CCn3nc(-c4c(OC)ncnc4C4CC4)cc32)cc1` [Example 125], the figures for the solubility at 24 h in data set [1] (setting [5]) and in data set [1] (setting [6]) were not below 10 µM and less than 10 µM, respectively. The IC50 (on USP1/UAF1 enzyme; in data set [2]) was less than 0.1 µM in each case. The half-life at 1 μM in data set [3] and in data set [4] was more than 25 min in each case.
Take `COc1cc([C@@H](C)N2C(=O)CCn3nc(-c4c(OC)ncnc4C4CC4)cc32)ccc1-c1nc(C(F)(F)F)cn1C(C)C` [Example 129]: the solubility at 24 h in data set [1] (setting [5]) is not below 10 µM; in data set [1] (setting [6]), less than 10 µM. Also, the IC50 (at USP1/UAF1 enzyme; in data set [2]) was less than 0.1 µM throughout. In addition, the half-life at 1 μM in data set [3] was more than 25 min; in data set [4], less than 25 min.
With `CCn1cc(C(F)(F)F)nc1-c1ccc(CN2C(=O)CCn3nc(-c4c(Cl)cnn4[C@H](C)COC)cc32)cc1F` [Example 131], the solubility at 24 h in data set [1] (setting [5]) and in data set [1] (setting [6]) was less than 10 µM in each case. Moreover, the IC50 (on USP1/UAF1 enzyme; in data set [2]) was less than 0.1 µM throughout. Further, the half-life at 1 μM in data set [3] and in data set [4] was less than 25 min throughout.
With `CCn1cc(C(F)(F)F)nc1-c1ccc(CN2C(=O)CCn3nc(-c4c(Cl)cnn4[C@@H](C)COC)cc32)cc1F` [Example 132], the solubility at 24 h in data set [1] (setting [5]) and in data set [1] (setting [6]) was less than 10 µM in each case. In addition, the IC50 (at USP1/UAF1 enzyme; in data set [2]) was less than 0.1 µM each time. Further, the half-life at 1 μM in data set [3] and in data set [4] was less than 25 min each time.
Turning to `CC(C)n1ncc(Cl)c1-c1cc2n(n1)CCC(=O)N2Cc1ccc(-c2nn(C)cc2C#N)cc1` [Example 133], the solubility at 24 h in data set [1] (setting [5]) and in data set [1] (setting [6]) was less than 10 µM throughout. Also, the IC50 was less than 0.1 µM on USP1/UAF1 enzyme and 0.1 to 0.5 µM in data set [2]. In addition, the half-life at 1 μM in data set [3] and in data set [4] was more than 25 min each time.
As to `COc1cc(C)nn1-c1ccc(CN2C(=O)CCn3nc(-c4c(Cl)cnn4C(C)C)cc32)cc1` [Example 135], the solubility at 24 h in data set [1] (setting [5]) and in data set [1] (setting [6]) was less than 10 µM each time. Moreover, the IC50 (on USP1/UAF1 enzyme; in data set [2]) was less than 0.1 µM throughout. The half-life at 1 μM in data set [3] and in data set [4] was less than 25 min in each case.
With `CCn1cc(C(F)(F)F)nc1-c1ccc([C@@H](C)N2C(=O)CCn3nc(-c4c(Cl)cnn4C(C)C)cc32)cn1` [Example 139], the solubility at 24 h in data set [1] (setting [5]) and in data set [1] (setting [6]) was less than 10 µM throughout. The figures for the IC50 (on USP1/UAF1 enzyme; in data set [2]) were less than 0.1 µM and 0.1 to 0.5 µM, respectively. In addition, the half-life at 1 μM in data set [3] and in data set [4] was more than 25 min in each case.
For `CCn1cc(C(F)(F)F)nc1-c1c(F)cc(CN2C(=O)CCn3nc(-c4c(OC)ncnc4C4CC4)cc32)cc1OC` [Example 140], the solubility at 24 h in data set [1] (setting [5]) was not below 10 µM; in data set [1] (setting [6]), less than 10 µM. The IC50 (at USP1/UAF1 enzyme; in data set [2]) was less than 0.1 µM each time. The half-life at 1 μM in data set [3] and in data set [4] was more than 25 min throughout.
As to `CCn1cc(C(F)(F)F)nc1-c1c(F)cc(CN2C(=O)CCn3nc(-c4c(Cl)cnn4C(C)C)cc32)cc1OC` [Example 141], the solubility at 24 h in data set [1] (setting [5]) and in data set [1] (setting [6]) was less than 10 µM throughout. Besides, the IC50 (at USP1/UAF1 enzyme; in data set [2]) was less than 0.1 µM each time. For the same molecule, the half-life at 1 μM in data set [3] and in data set [4] was more than 25 min throughout.
On to `CCn1cc(C(F)(F)F)nc1-c1ccc([C@H](C)N2C(=O)CCn3nc(-c4c(OC)ncnc4C4CC4)cc32)cc1F` [Example 142], for which the values for the solubility at 24 h in data set [1] (setting [5]) and in data set [1] (setting [6]) were not below 10 µM and less than 10 µM, respectively. The IC50 (on USP1/UAF1 enzyme; in data set [2]) was 0.1 to 0.5 µM throughout. Besides, the half-life at 1 μM in data set [3] is more than 25 min; in data set [4], less than 25 min.
Take `CCn1cc(C(F)(F)F)nc1-c1ccc([C@@H](C)N2C(=O)CCn3nc(-c4c(OC)ncnc4C4CC4)cc32)cc1F` [Example 143]: the solubility at 24 h in data set [1] (setting [5]) and in data set [1] (setting [6]) was not below 10 µM each time. For the same molecule, the IC50 (at USP1/UAF1 enzyme; in data set [2]) was less than 0.1 µM in each case. The half-life at 1 μM in data set [3] and in data set [4] was more than 25 min each time.
As to `COc1cc(CN2C(=O)CCn3nc(-c4c(OC)ncnc4C4CC4)cc32)cc(F)c1-c1nc(C(F)(F)F)cn1C(C)C` [Example 144], the solubility at 24 h in data set [1] (setting [5]) was not below 10 µM; in data set [1] (setting [6]) it was less than 10 µM. Besides, the IC50 (on USP1/UAF1 enzyme; in data set [2]) was less than 0.1 µM in each case. Also, the half-life at 1 μM in data set [3] and in data set [4] was more than 25 min in each case.
Regarding `CCn1cc(C(F)(F)F)nc1-c1c(Cl)cc(CN2C(=O)CCn3nc(-c4c(OC)ncnc4C4CC4)cc32)cc1OC` [Example 145], the solubility at 24 h in data set [1] (setting [5]) and in data set [1] (setting [6]) was less than 10 µM in each case. The IC50 (on USP1/UAF1 enzyme; in data set [2]) was less than 0.1 µM each time. Also, the half-life at 1 μM in data set [3] and in data set [4] was less than 25 min throughout.
`Cc1cnn(C(C)C)c1-c1nn2c(c1Cl)N(Cc1ccc(-c3nc(C(F)(F)F)cn3C)cc1)CCC2` [Example 147, 3-chloro-2-(1-isopropyl-4-methyl-1H-pyrazol-5-yl)-4-(4-(1-methyl-4-(trifluoromethyl)-1H-imidazol-2-yl)benzyl)-4,5,6,7-tetrahydropyrazolo[1,5-α]pyrimidine]: the solubility at 24 h in data set [1] (setting [5]) and in data set [1] (setting [6]) was less than 10 µM throughout. Moreover, the IC50 (at USP1/UAF1 enzyme; in data set [2]) was less than 0.1 µM each time. Also, the half-life at 1 μM in data set [3] and in data set [4] was less than 25 min in each case.
Take `Cc1cnn(C(C)C)c1-c1nn2c(c1Cl)N(Cc1ccc(-c3nc(C(F)(F)F)cn3C(C)C)c(F)c1)CCC2` [Example 148]: the solubility at 24 h in data set [1] (setting [5]) and in data set [1] (setting [6]) was less than 10 µM each time. Moreover, the IC50 (at USP1/UAF1 enzyme; in data set [2]) was less than 0.1 µM in each case. In addition, the half-life at 1 μM in data set [3] and in data set [4] was less than 25 min throughout.
On to `CCn1cc(C(F)(F)F)nc1-c1ccc(CN2C(=O)CCn3nc(-c4c(Cl)cnn4C(C)COC)cc32)cc1` (stereo not drawn) [Example 151], for which the solubility at 24 h in data set [1] (setting [5]) and in data set [1] (setting [6]) was less than 10 µM in each case. Moreover, the IC50 (at USP1/UAF1 enzyme; in data set [2]) was less than 0.1 µM in each case. Moreover, the half-life at 1 μM in data set [3] and in data set [4] was less than 25 min throughout.
Regarding `CCn1cc(C(F)(F)F)nc1-c1ccc(CN2C(=O)CCn3nc(-c4c(Cl)cnn4C4(COC)CC4)cc32)cc1F` [Example 153], the solubility at 24 h in data set [1] (setting [5]) and in data set [1] (setting [6]) was less than 10 µM in each case. The IC50 at USP1/UAF1 enzyme is less than 0.1 µM; in data set [2], 0.1 to 0.5 µM. Also, the half-life at 1 μM in data set [3] and in data set [4] was less than 25 min in each case.
Consider `CCn1cc(C(F)(F)F)nc1-c1ccc(CN2C(=O)CCn3nc(-c4c(Cl)cnn4C4(COC)CC4)cc32)cc1` [Example 159], for which the solubility at 24 h in data set [1] (setting [5]) and in data set [1] (setting [6]) was less than 10 µM throughout. Further, the figures for the IC50 (on USP1/UAF1 enzyme; in data set [2]) were less than 0.1 µM and 0.1 to 0.5 µM, respectively. The half-life at 1 μM in data set [3] is more than 25 min; in data set [4], less than 25 min.

(Values after patent US20230219965A1 (KSQ Therapeutics, Inc., priority 2020, published 2023).)
